Results as given in patent US20220288020A1, “METHOD OF TREATING NEOPLASTIC DISEASES WITH A CDC42-SPECIFIC INHIBITOR” (Children's Hospital Medical Center, priority 2019, published 2022).

Columns and labels:
[1] = tested on: MC38 mouse colon cancer cells; experiment: Therapeutic CASIN treatment upon tumor onset, MC38 tumor model in C57BL/6 mice, with or without Anti-CD4/CD8 T-cell depletion; format: in vivo
Experimental: FIG. 5. Therapeutic CASIN treatment causes anti-tumor T-cell immunity. C57BL/6 mice were inoculated (s.c.) with MC38 (8×10^5) at day 1 and injected (i.p.) with Anti-CD4/CD8 neutralizing antibodies (5 mg/kg body weight for each antibody) or isotype control antibody once every 4 days starting at day 1. Starting from day 10 when tumor onset was observed, the mice were treated with vehicle or CASIN as described for FIG. 4 above. Tumor volume was monitored (A). At day 14, depletion of T-cells in peripheral blood from the mice treated with Anti-CD4/CD8 neutralizing antibodies was confirmed by flow cytometry (data not shown). Upon euthanasia, tumors were dissected from isotype control antibody-treated mice. The expression of IFN-γ^+ and IL-17^+ in CD4^+Foxp3^+ cells was analyzed by flow cytometry (B). CD3^+ T-cells were visualized by immunohistochemistry using anti-CD3 antibody (C). The expression of IFN-γ^+ and/or IL-17^+ in CD4^+Foxp3^− (D) and CD8^+ cells (E) was analyzed by flow cytometry. n=5. Error bars indicate SD. **p<0.01; *p<0.05. […]
The Cdc42 conditional knockout mice and CASIN were developed in CCHMC by Dr. Yi Zheng lab (Yang L, Wang L, Zheng Y. Gene targeting of Cdc42 and Cdc42GAP affirms the critical involvement of Cdc42 in filopodia induction, directed migration, and proliferation in primary mouse embryonic fibroblasts. Mol Biol Cell. 2006 November; 17(11):4675-85) (Liu W, Du W, Shang X, Wang L, Evelyn C, Florian M C, A Ryan M, Rayes A, Zhao X, Setchell K, Meller J, Guo F, Nassar N, Geiger H, Pang Q, Zheng Y. Rational identification of a Cdc42 inhibitor presents a new regimen for long-term hematopoietic stem cell mobilization. […] In the examples below, the effects of Cdc42 deletion and CASIN on T-cell immunity against tumor growth of colorectal cancer cells and/or pancreatic cancer cells was evaluated. […]
C57BL/6 mice were injected (s.c.) with MC38 (8×10^5) at day 1 and injected (i.p.) with Anti-CD4/CD8 neutralizing antibodies (5 mg/kg body weight for each antibody) or isotype control antibody once every 4 days starting at day 1. […] Tumor volume was monitored. […]

[2] = tested on: MC38 mouse colon cancer cells; experiment: Prophylactic CASIN treatment, syngeneic MC38 tumor model in C57BL/6 mice; format: in vivo
Experimental: FIG. 4. Prophylactic CASIN causes anti-tumor immunity. C57BL/6 mice were injected (i.p.) with vehicle or 30 mg/kg body weight of CASIN twice a day for one week and then 40 mg/kg body weight of CASIN once a day until the end of the experiment. One day after the first CASIN treatment, the mice were injected (s.c.) with MC38 (8×10^5). Tumor growth was monitored (A). Upon euthanasia, tumors were dissected and the expression of IFN-γ^+, IL-4^+ and/or IL-17^+ within CD4^+Foxp3^+ (B), CD4^+Foxp3^− (C), and CD8^+ (D) cells was analyzed by flow cytometry. n=7. Error bars indicate SD. **p<0.01; *p<0.05. In FIGS. 4(A)-(D), data for vehicle administration is the top line (furthest from the x-axis) in FIG. 4A and left side of each data representation in FIGS. 4(B)-(D); and data for CASIN administration is the bottom line (closest to the x-axis) in FIG. 4(A) and right side of each data representation in FIGS. 4(B)-(D).
The Cdc42 conditional knockout mice and CASIN were developed in CCHMC by Dr. Yi Zheng lab (Yang L, Wang L, Zheng Y. Gene targeting of Cdc42 and Cdc42GAP affirms the critical involvement of Cdc42 in filopodia induction, directed migration, and proliferation in primary mouse embryonic fibroblasts. Mol Biol Cell. 2006 November; 17(11):4675-85) (Liu W, Du W, Shang X, Wang L, Evelyn C, Florian M C, A Ryan M, Rayes A, Zhao X, Setchell K, Meller J, Guo F, Nassar N, Geiger H, Pang Q, Zheng Y. Rational identification of a Cdc42 inhibitor presents a new regimen for long-term hematopoietic stem cell mobilization. Leukemia. 2019 March; 33(3):749-761). In the examples below, the effects of Cdc42 deletion and CASIN on T-cell immunity against tumor growth of colorectal cancer cells and/or pancreatic cancer cells was evaluated. […]
C57BL/6 mice were injected (i.p.) with vehicle or 30 mg/kg body weight of CASIN twice a day for one week and then 40 mg/kg body weight of CASIN once a day until the end of the experiment. […] Tumor growth was monitored. […]

[3] = tested on: MC38 mouse colon cancer cells; experiment: MC38 tumor growth in Cdc42+/- mice treated with AZA; format: in vivo; conditions: AZA 40 mg/kg i.p. once a day, started three days before MC38 (8×10^5) s.c.; vs Cdc42+/- + vehicle; FIG. 3F
Experimental: (§1) FIG. 3. […] (A, B) Treg-specific heterozygous deletion of Cdc42 upregulates CAI and alkalizes extracellular pH of Tregs. Splenic CD4^+ YFP^+ Tregs were flow-sorted from WT and Cdc42^+/− mice. CAI expression was detected by Q-PCR (A). Another aliquot of the cells were cultured with Anti-CD3/CD28 and IL-2 for 36 hrs. pH of the culture medium (pHe) was measured by a pH meter. (C, D) Extracellular alkalization destabilizes Tregs. Splenic CD4^+ YFP^+ Tregs from WT mice were cultured as described in B, with regular medium of pH 7.4 or medium of pH 7.56 (C). Alternatively, the cells were cultured with conditional medium (CM) from WT Treg culture or from Cdc42^+/− Treg culture (D). Percentages of IFN-γ^+ cells within Tregs (left) and non-Tregs (right) were analyzed by flow cytometry. (E) Inhibition of CAI by acetazolamide (AZA) rescues instability of Cdc42^+/− Tregs. […] Percentages of IFN-γ^+ cells within Tregs (left) and non-Tregs (right) were analyzed by flow cytometry. […] Three days after starting AZA injection, the mice were inoculated (s.c.) with MC38 (8×10^5) and tumor volume was recorded. n=4-7. […]
(§2) Cdc42^fl/+Foxp3^YFP-Cre and Cdc42^+/+Foxp3^YFP-Cre mice were inoculated (s.c.) with MC38 mouse colon cancer cells (8×10^5) or KPC mouse pancreatic cancer cells (8×10^5). Tumor volume was monitored. […] Quantitative real-time RT-PCR (Q-PCR) confirmed the upregulation of CAI in Cdc42^+/− Tregs (FIG. 3A). […]

[4] = tested on: Splenic CD4+ YFP+ Tregs from Cdc42+/- mice; experiment: Stability of Cdc42+/- Tregs cultured with or without acetazolamide (flow cytometry, IFN-γ+ cells); format: cell-based, mouse; conditions: Splenic CD4+ YFP+ Tregs from Cdc42+/- mice cultured with AZA; FIG. 3E
Experimental: as §1, §2

Row | Structure (SMILES) | tumor growth (tumor volume) ([1]; CASIN i.p. 30 mg/kg twice a day for one week then 40 mg/kg once a day from day 10 (tumor onset), isotype control antibody, FIG. 5A) | Treg stability (IFN-γ+ and IL-17+ in tumor CD4+Foxp3+ cells) ([1]; therapeutic CASIN, dissected tumors, flow cytometry, FIG. 5B) | effector T-cells (CD3+ T-cells, IFN-γ-producing CD4+Foxp3- and CD8+ cells) in tumors ([1]; therapeutic CASIN, immunohistochemistry and flow cytometry, FIG. 5C-E) | tumor growth ([2]; CASIN i.p. 30 mg/kg twice a day for one week then 40 mg/kg once a day, started one day before MC38 s.c., vs vehicle, FIG. 4A) | Treg stability (IFN-γ+, IL-4+, IL-17+ within tumor CD4+Foxp3+ cells) ([2]; prophylactic CASIN, dissected tumors, flow cytometry, FIG. 4B) | effector T cells (tumor CD4+Foxp3- and CD8+ cells) ([2]; prophylactic CASIN, dissected tumors, flow cytometry, FIG. 4C, D) | tumor growth (tumor volume) in Cdc42+/- mice [3] | instability of Cdc42+/- Tregs (percentages of IFN-γ+ cells within Tregs) [4]
1 | OCCNC1CCCc2c1[nH]c1ccc(-c3ccccc3)cc21 (centres unmarked) [CASIN] | inhibited tumor growth | Treg instability | increased effector T-cells | suppressing tumor growth | destabilizing Tregs | increasing effector T cells | – | –
2 | CC(=O)Nc1nnc(S(N)(=O)=O)s1 [acetazolamide] | – | – | – | – | – | – | restores tumor growth | rescued the instability
